Earlier results as cited in patent publication US12329849B2, “Method for dyeing keratinous material, comprising the use of an organosilicon compound, a dyeing compound, a sealing reagent, and a polymer-containing post-treatment agent” (Henkel AG & Co. KGaA, priority 2021, dated 2025).

Row | Structure (SMILES) | solubility in water (25° C.) | other results
1 | O=C([O-])c1c(Cl)c(Cl)c(Cl)c(Cl)c1-c1c2c(Br)cc(=O)c(Br)c-2oc2c(Br)c(O)cc(Br)c12.O=C([O-])c1c(Cl)c(Cl)c(Cl)c(Cl)c1-c1c2c(Br)cc(=O)c(Br)c-2oc2c(Br)c(O)cc(Br)c12.[Na+].[Na+] [Acid Red 92, disodium salt of 3,4,5,6-tetrachloro-2-(1,4,5,8-tetrabromo-6-hydroxy-3-oxoxanthen-9-yl)benzoic acid] | greater than 10 g/l | 
2 | O=C([O-])C1=NN(c2ccc(S(=O)(=O)[O-])cc2)C(=O)C1N=Nc1ccc(S(=O)(=O)[O-])cc1.[Na+].[Na+].[Na+] (centres unmarked) [Acid Yellow 23, trisodium salt of 4,5-dihydro-5-oxo-1-(4-sulfophenyl)-4-((4-sulfophenyl)azo)-1H-pyrazole-3-carboxylic acid] |  | solubility in water (in words) (at 25° C.): readily soluble
3 | CCN(Cc1cccc(S(=O)(=O)[O-])c1)c1ccc(C(=C2C=CC(=[N+](CC)Cc3cccc(S(=O)(=O)[O-])c3)C=C2)c2ccccc2S(=O)(=O)[O-])cc1.[Na+].[Na+] [Acid Blue 9] |  | water solubility (25° C.): more than 20 wt %
4 | Nc1cc(S(=O)(=O)[O-])cc2cc(S(=O)(=O)[O-])c(N=Nc3ccccc3)c(O)c12.[Na+].[Na+] [Acid Red 33, disodium salt of 5-amino-4-hydroxy-3-(phenylazo)-naphthalene-2,7-disulfonate] | 2500 µg/mL | 
5 | O=S(=O)([O-])c1ccc(N=Nc2c(O)ccc3ccccc23)cc1.[Na+] [Acid Orange 7, sodium salt of 4-[(2-hydroxy-1-naphthyl)azo]benzenesulfonate] | more than 7 g/l | 
